Source: ChEMBL document CHEMBL1201862, “PubChem BioAssay data set” (2004)
“And” between values parts separate entries of the source, which are not always exact repeats. Equal values may be shown once.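 Dose response: 5 concentrations. Exposure: 48 h. Format: 96-well plates. Endpoint: linear interpolation; highest concentration if not reached. GI50 is the concentration that inhibits growth by half.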 The source made the active and inactive calls. Cut-off read from the data, not from the text of the source: active = GI50 up to about 1.1 µM and inactive = higher.

How the values were obtained:
Experiment in all cases: DTP human tumour cell line panel, 48 h
786-0 = tested on: 786-0
A498 = tested on: A498
A549 = tested on: A549
ACHN = tested on: ACHN
BT-549 = tested on: BT-549
CAKI-1 = tested on: CAKI-1
DU-145 = tested on: DU-145
HCT-116 = tested on: HCT-116
HOP-62 = tested on: HOP-62
IGROV-1 = tested on: IGROV-1
M14 = tested on: M14
NCI-H226 = tested on: NCI-H226
NCI-H23 = tested on: NCI-H23
NCI-H460 = tested on: NCI-H460
OVCAR-5 = tested on: OVCAR-5
RXF 393 = tested on: RXF 393
SK-MEL-2 = tested on: SK-MEL-2
SN12C = tested on: SN12C
UACC-257 = tested on: UACC-257
UO-31 = tested on: UO-31

Compound	GI50 (786-0)	GI50 (A498)	GI50 (A549)	GI50 (ACHN)	GI50 (BT-549)	GI50 (CAKI-1)	GI50 (DU-145)	GI50 (HCT-116)	GI50 (HOP-62)	GI50 (IGROV-1)	GI50 (M14)	GI50 (NCI-H226)	GI50 (NCI-H23)	GI50 (NCI-H460)	GI50 (OVCAR-5)	GI50 (RXF 393)	GI50 (SK-MEL-2)	GI50 (SN12C)	GI50 (UACC-257)	GI50 (UO-31)
O=C1CCCC/C1=C(\Br)I	19.6 µM (inactive)	19.4 µM (inactive)	23.3 µM (inactive)	16.1 µM (inactive)	17.6 µM (inactive)	12.4 µM (inactive)	16 µM (inactive)	12 µM (inactive)	19.2 µM (inactive)	9.38 µM (inactive)	6.78 µM (inactive)	23.4 µM (inactive)	10.1 µM (inactive)	15.3 µM (inactive)	18.8 µM (inactive)	15.6 µM (inactive)	22.3 µM (inactive)	16.9 µM (inactive)	16.6 µM (inactive)	17.7 µM (inactive)
COC(=O)[C@@H]1N2C(=S)N(c3ccccc3)C(=O)[C@H]2SC1(C)C	> 100 µM (inactive)	91.4 µM (inactive)	> 100 µM (inactive)	> 100 µM (inactive)	> 100 µM (inactive)	> 100 µM (inactive)	> 100 µM (inactive)	> 100 µM (inactive)	> 100 µM (inactive)	> 100 µM (inactive)	> 100 µM (inactive)	> 100 µM (inactive)	> 100 µM (inactive)	> 100 µM (inactive)	> 100 µM (inactive)	> 100 µM (inactive)	> 100 µM (inactive)	> 100 µM (inactive)	> 100 µM (inactive)	> 100 µM (inactive)
O=C1C(N2CCN(c3ccccn3)CC2)=C(Cl)C(=O)c2ncccc21	1.78 µM (inactive)	5.07 µM (inactive)	> 10 µM (inactive)	2.14 µM (inactive)	> 10 µM (inactive)	0.433 µM (active)	> 6.76 µM (inactive)	1.71 µM (inactive)	> 10 µM (inactive)	> 7 µM (inactive)	1.98 µM (inactive)	> 10 µM (inactive)	1.85 µM (inactive)	> 10 µM (inactive)	> 10 µM (inactive)	1.98 µM (inactive)	2.31 µM (inactive)	1.66 µM (inactive)	2.96 µM (inactive)	3.27 µM (inactive)
CCOC(=O)CCC1(C(=O)O[C@@H]2C[C@H](C)CC[C@H]2C(C)C)CCCCC1=O (some centres not stated)	> 100 µM (inactive)	> 100 µM (inactive)	55.3 µM (inactive)	74.8 µM (inactive)	> 100 µM (inactive)	40.7 µM (inactive)	> 100 µM (inactive)	41.7 µM (inactive)	> 100 µM (inactive)	> 100 µM (inactive)	56.5 µM (inactive)	> 100 µM (inactive)	74.8 µM (inactive)	36.6 µM (inactive)	> 100 µM (inactive)	55.7 µM (inactive)	> 100 µM (inactive)	> 100 µM (inactive)	23.3 µM (inactive)	> 100 µM (inactive)
CCOC(=O)/C(C#N)=C1\c2c([nH]c(=S)[nH]c2=O)Oc2ccc3ccccc3c21	53.8 µM (inactive)	36.6 µM (inactive)	1.67 µM (inactive)	28.8 µM (inactive)	> 100 µM (inactive)	75 µM (inactive)	78.9 µM (inactive)	67.3 µM (inactive)	42.2 µM (inactive)	> 100 µM (inactive)	43.8 µM (inactive)	18 µM (inactive)	88.1 µM (inactive)	0.0857 µM (active)	> 100 µM (inactive)	36.2 µM (inactive)	13 µM (inactive)	41.1 µM (inactive)	> 100 µM (inactive)	20 µM (inactive)
COC(=O)[C@]1(C)CC[C@]2(C)CC[C@]3(C)C4[C@H]5Oc6c(cc7c(c6C)CCC6[C@@]7(C)CC[C@@]7(C)C8[C@](C)(CCC[C@@]8(C)C(=O)OC)CC[C@]67C)O[C@H]5c5c(cc6c(c5C)O[C@@]5(C)C7=CC=C8[C@@](C)(CC[C@@]9(C)[C@@H]%10C[C@](C)(C(=O)OC)CC[C@]%10(C)CC[C@]89C)C7=CC(=O)[C@@]5(O)O6)[C@]4(C)CC[C@@]3(C)C2C1 (some centres not stated)	1.86 µM (inactive)	> 12.5 µM (inactive)	> 12.5 µM (inactive)	3.94 µM (inactive)	7.03 µM (inactive)	6.22 µM (inactive)	3.6 µM (inactive)	2.34 µM (inactive)	8.51 µM (inactive)	2.62 µM (inactive)	4.01 µM (inactive)	> 12.5 µM (inactive)	8.97 µM (inactive)	8.91 µM (inactive)	9.79 µM (inactive)	1.91 µM (inactive)	3.01 µM (inactive)	2.35 µM (inactive)	2.83 µM (inactive)	2.52 µM (inactive)
COC1OC(C(=O)CP(=O)(OC)OC)C(OCc2ccccc2)C(OCc2ccccc2)C1OCc1ccccc1 (configuration not stated)	17.6 µM (inactive) and 17.3 µM (inactive)	14.1 µM (inactive)	15.3 µM (inactive) and 15.5 µM (inactive)	16.4 µM (inactive) and 15.9 µM (inactive)	17.9 µM (inactive) and 19.5 µM (inactive)	16.3 µM (inactive) and 19.6 µM (inactive)	17.9 µM (inactive) and 16.5 µM (inactive)	16.6 µM (inactive) and 15.5 µM (inactive)	17.2 µM (inactive) and 18 µM (inactive)	18.3 µM (inactive) and 18.9 µM (inactive)	15.3 µM (inactive) and 16.6 µM (inactive)	19.2 µM (inactive) and 18.8 µM (inactive)	15.9 µM (inactive) and 17.5 µM (inactive)	15 µM (inactive) and 15.9 µM (inactive)	15.4 µM (inactive) and 17.4 µM (inactive)	14.8 µM (inactive) and 12.1 µM (inactive)	16.5 µM (inactive) and 17.1 µM (inactive)	16.4 µM (inactive)	16.5 µM (inactive) and 15.7 µM (inactive)	11.2 µM (inactive) and 17.1 µM (inactive)
O=C(O)CCC(C(=O)O)N1C(=O)c2ccccc2C1=O (configuration not stated)	> 100 µM (inactive)	> 100 µM (inactive)	> 100 µM (inactive)	> 100 µM (inactive)	> 100 µM (inactive)	> 100 µM (inactive)	> 100 µM (inactive)	> 100 µM (inactive)	> 100 µM (inactive)	> 100 µM (inactive)	> 100 µM (inactive)	> 100 µM (inactive)	> 100 µM (inactive)	> 100 µM (inactive)	> 100 µM (inactive)	> 100 µM (inactive)	> 100 µM (inactive)	> 100 µM (inactive)	> 100 µM (inactive)	> 100 µM (inactive)
COS(C)(=O)=O [METHANESULFONIC ACID METHYL ESTER]	> 2 µM (inactive)	> 2 µM (inactive)	> 2 µM (inactive)	> 2 µM (inactive)	> 2 µM (inactive)	> 2 µM (inactive)	> 2 µM (inactive)	> 2 µM (inactive)	> 2 µM (inactive)	> 2 µM (inactive)	> 2 µM (inactive)	> 2 µM (inactive)	> 2 µM (inactive)	> 2 µM (inactive)	> 2 µM (inactive)	> 2 µM (inactive)	> 2 µM (inactive)	> 2 µM (inactive)	> 2 µM (inactive)	> 2 µM (inactive)
O=C1/C(=C/c2cccnc2)SC(=S)N1Cc1ccco1	3.29 µM (inactive)	24.7 µM (inactive)	31 µM (inactive)	10.7 µM (inactive)	27.2 µM (inactive)	9.59 µM (inactive)	2.19 µM (inactive)	3.06 µM (inactive)	5.77 µM (inactive)	6.68 µM (inactive)	5.6 µM (inactive)	24.4 µM (inactive)	4.72 µM (inactive)	6.37 µM (inactive)	36.1 µM (inactive)	3.44 µM (inactive)	8.87 µM (inactive)	4.47 µM (inactive)	4.92 µM (inactive)	2.84 µM (inactive)
CCOC(=O)c1cc2c([nH]1)c(OC(C)=O)cc1c2ccn1Cc1ccccc1	> 100 µM (inactive)	> 100 µM (inactive)	> 100 µM (inactive)	–	> 100 µM (inactive)	> 100 µM (inactive)	> 100 µM (inactive)	> 100 µM (inactive)	> 100 µM (inactive)	> 100 µM (inactive)	> 100 µM (inactive)	> 100 µM (inactive)	> 100 µM (inactive)	> 100 µM (inactive)	> 100 µM (inactive)	> 100 µM (inactive)	> 100 µM (inactive)	> 100 µM (inactive)	> 100 µM (inactive)	> 100 µM (inactive)
CC(=O)c1cc2c(s1)C(=O)c1ccsc1C2=O	1.92 µM (inactive)	7.24 µM (inactive)	2.05 µM (inactive)	0.215 µM (active)	0.182 µM (active)	2.12 µM (inactive)	0.309 µM (active)	0.292 µM (active)	0.491 µM (active)	1.75 µM (inactive)	0.28 µM (active)	1.6 µM (inactive)	0.167 µM (active)	–	0.74 µM (active)	0.244 µM (active)	0.621 µM (active)	0.182 µM (active)	0.132 µM (active)	0.243 µM (active)
N#CCCN(CCN(CCN(C(=O)Nc1ccccc1)c1ccccc1)C(=O)Nc1ccccc1)C(=O)Nc1ccccc1	> 100 µM (inactive)	> 100 µM (inactive)	> 100 µM (inactive)	40.1 µM (inactive)	> 100 µM (inactive)	> 100 µM (inactive)	> 100 µM (inactive)	> 100 µM (inactive)	> 100 µM (inactive)	43.9 µM (inactive)	> 100 µM (inactive)	> 100 µM (inactive)	> 100 µM (inactive)	–	> 100 µM (inactive)	> 100 µM (inactive)	> 100 µM (inactive)	> 100 µM (inactive)	> 100 µM (inactive)	> 100 µM (inactive)
